From patent US8071625B2, “Certain chemical entities, compositions, and methods” (Cytokinetics, Inc., priority 2006, dated 2011) come the findings set out here.

The test has as its target T1, crosslinked smooth muscle actomyosin (chicken gizzard smooth muscle myosin subfragment-1 crosslinked to cardiac or skeletal actin) (Gallus gallus, UniProt P10587).
T1 construct: chicken gizzard smooth muscle myosin subfragment-1; from tissue; host or cells: chicken gizzard
Briefly: Lead optimization pyruvate kinase/horseradish peroxidase/pyruvate oxidase-coupled ATPase assay (compound dose response). The format is biochemical. As to conditions: read-out: IC50 Arithmetic Mean. The method, boiled down:
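IC50 is the midpoint of a 4-parameter dose–response fit of Amplex Red fluorescence (480/615 nm). Buffer was 12 mM potassium PIPES pH 7.00 at 22 °C with 100 mM KCl, 2 mM MgCl2, 0.15 mM ATP and 2 mM phosphate, with PK/pyruvate oxidase/HRP coupling. Enzyme: smooth muscle myosin S1 crosslinked to cardiac or skeletal actin, dosed empirically by activity.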

As usually defined, the IC50 is the concentration that inhibits the measured activity by half.

As to `CCc1ccc(NC(=O)OCC(C)(NC(=O)OC)C(=O)NCc2ccccc2Cl)cc1` (centres unmarked) [N-[(2-chlorophenyl)methyl]-3-[N-(4-ethylphenyl)carbamoyloxy]-2-(methoxycarbonylamino)-2-methylpropanamide], the IC50 worked out at 4090 nM.

`CCc1ccc(NC(=O)NCC(C)(C)C(=O)NCc2ccccc2Cl)cc1` [N-[(2-chlorophenyl)methyl]-3-{[(4-ethylphenyl)amino]carbonylamino}-2,2-dimethylpropanamide]: the IC50 is 8820 nM.

Regarding `CCc1ccc(NC(=O)OCCC(C)(C)C(=O)NCc2ccccc2Cl)cc1` [N-[(2-chlorophenyl)methyl]-4-[N-(4-ethylphenyl)carbamoyloxy]-2,2-dimethylbutanamide], the IC50 stood at 235 nM.

`CCc1ccc(NC(=O)OCCCC(=O)NCc2ccccc2Cl)cc1` [N-[(2-chlorophenyl)methyl]-4-[N-(4-ethylphenyl)carbamoyloxy]butanamide]: the concentration for half-maximal inhibition (IC50) amounted to 3430 nM. Regarding `CCc1ccc(NC(=O)NCCC(C)(C)C(=O)NCc2ccccc2Cl)cc1` [N-[(2-chlorophenyl)methyl]-4-{[N-(4-ethylphenyl)carbamoyl]amino}-2,2-dimethylbutanamide], the half-maximal inhibitory concentration (IC50) is 4730 nM. As for `CCc1ccc(NC(=O)CCC(C)(C)C(=O)NCc2ccccc2Cl)cc1` [N-[(2-chlorophenyl)methyl]-N′-(4-ethylphenyl)-2,2-dimethylpentane-1,5-diamide], the IC50 came out at 18500 nM.

On to `O=C(Nc1ccc(C(F)(F)F)cc1)OCC1(C(=O)NCc2ccccc2Cl)CCN(C(=O)CO)CC1` [N-[(2-chlorophenyl)methyl][1-(2-hydroxyacetyl)-4-({N-[4-(trifluoromethyl)phenyl]carbamoyloxy}methyl)(4-piperidyl)]carboxamide], for which the half-maximal inhibitory concentration (IC50) turned out to be 456 nM. `CCc1ccc(NC(=O)NCC2CCCN2C(=O)NCc2ccccc2Cl)cc1` (centres unmarked) [N-[(2-chlorophenyl)methyl][2-({[(4-ethylphenyl)amino]carbonylamino}methyl)pyrrolidinyl]carboxamide]: the IC50 was found to be 2620 nM. On to `Cc1nc(-c2ccc(NC(=O)OCC3(C(=O)NCc4ccccc4Cl)CCOCC3)cc2)cs1` [N-[(2-chlorophenyl)methyl][4-({N-[4-(2-methyl(1,3-thiazol-4-yl))phenyl]carbamoyloxy}methyl)(2H-3,4,5,6-tetrahydropyran-4-yl)]carboxamide], for which the IC50 came to 3920 nM.

With `CC(O)c1ccc(NC(=O)OCC2(C(=O)NCc3ccccc3Cl)CCOCC2)cc1` (centres unmarked) [N-[(2-chlorophenyl)methyl][4-({N-[4-(hydroxyethyl)phenyl]carbamoyloxy}methyl)(2H-3,4,5,6-tetrahydropyran-4-yl)]carboxamide], the IC50 stood at 5230 nM.

For `CC(C)c1ccc(NC(=O)OCC2(C(=O)NCc3ccccc3Cl)CCOCC2)cc1` [N-[(2-chlorophenyl)methyl][4-({N-[4-(methylethyl)phenyl]carbamoyloxy}methyl)(2H-3,4,5,6-tetrahydropyran-4-yl)]carboxamide], the IC50 came out at 498 nM.

`O=C(Nc1ccc(C(F)(F)F)cc1)OCC1(C(=O)NCc2ccccc2Cl)CCOCC1` [N-[(2-chlorophenyl)methyl][4-({N-[4-(trifluoromethyl)phenyl]carbamoyloxy}methyl)(2H-3,4,5,6-tetrahydropyran-4-yl)]carboxamide]: the half-inhibitory concentration (IC50) came out at 1140 nM. The value for `O=C(Nc1ccc(C(F)(F)F)cc1)OCC1(C(=O)NCc2ccccc2Cl)CCNCC1` [N-[(2-chlorophenyl)methyl][4-({N-[4-(trifluoromethyl)phenyl]carbamoyloxy}methyl)(4-piperidyl)]carboxamide] was 5940 nM. The same measure for `Cc1ccc(NC(=O)OCC2(C(=O)NCc3ccccc3Cl)CCOCC2)cc1C(F)(F)F` [N-[(2-chlorophenyl)methyl][4-({N-[4-methyl-3-(trifluoromethyl)phenyl]carbamoyloxy}methyl)(2H-3,4,5,6-tetrahydropyran-4-yl)]carboxamide]: 12100 nM; for `CCc1ccc(NC(=O)N(C)CC2(C(=O)NCc3ccccc3Cl)CCN(C(=O)CO)CC2)cc1` [N-[(2-chlorophenyl)methyl][4-({[(4-ethylphenyl)amino]-N-methylcarbonylamino}methyl)-1-(2-hydroxyacetyl)(4-piperidyl)]carboxamide]: 18700 nM; for `CCc1ccc(NC(=O)NCC2(C(=O)NCc3ccccc3Cl)CCNCC2)cc1` [N-[(2-chlorophenyl)methyl][4-({[(4-ethylphenyl)amino]carbonylamino}methyl)(4-piperidyl)]carboxamide]: 18200 nM.

Consider `CCc1ccc(NC(=O)NCC2(C(=O)NCc3ccccc3Cl)CCN(C(=O)CO)CC2)cc1` [N-[(2-chlorophenyl)methyl][4-({[(4-ethylphenyl)amino]carbonylamino}methyl)-1-(2-hydroxyacetyl)(4-piperidyl)]carboxamide], for which the IC50 was found to be 1880 nM. The value for `CCc1ccc(NC(=O)OC2CCCN(C(=O)NCc3ccccc3Cl)C2)cc1` (centres unmarked) [N-[(2-chlorophenyl)methyl]{3-[N-(4-ethylphenyl)carbamoyloxy]piperidyl}carboxamide] was 2260 nM; that for `O=C(Nc1ccc2c(c1)CCC2)OCC1(C(=O)NCc2ccccc2Cl)CCOCC1` [N-[(2-chlorophenyl)methyl]{4-[(N-indan-5-ylcarbamoyloxy)methyl](2H-3,4,5,6-tetrahydropyran-4-yl)}carboxamide] was 361 nM; that for `O=C(Nc1ccccc1)OCC1(C(=O)NCc2ccccc2Cl)CCOCC1` [N-[(2-chlorophenyl)methyl]{4-[(N-phenylcarbamoyloxy)methyl](2H-3,4,5,6-tetrahydropyran-4-yl)}carboxamide] was 15200 nM. In the case of `CCc1ccc(CC(=O)NCC2(C(=O)NCc3ccccc3Cl)CC2)cc1` [N-[({N-[(2-chlorophenyl)methyl]carbamoyl}cyclopropyl)methyl]-2-(4-ethylphenyl)acetamide], the IC50 is 18200 nM. The same measure for `CCc1ccc(NC(=O)NCC2(C(=O)NCc3ccccc3Cl)CC2)cc1` [N-[({N-[(2-chlorophenyl)methyl]carbamoyl}cyclopropyl)methyl][(4-ethylphenyl)amino]carboxamide]: 5230 nM; for `CCc1ccc(NC(=O)OCCN(C)C(=O)C(O)Cc2ccccc2C(F)(F)F)cc1` (centres unmarked) [N-{2-[N-(4-ethylphenyl)carbamoyloxy]ethyl}-2-hydroxy-N-methyl-3-[2-(trifluoromethyl)phenyl]propanamide]: 17500 nM. Take `CCc1ccc(NC(=O)OCCN(C)C(=O)CCc2ccccc2C(F)(F)F)cc1` [N-{2-[N-(4-ethylphenyl)carbamoyloxy]ethyl}-N-methyl-3-[2-(trifluoromethyl)phenyl]propanamide]: the IC50 worked out at 1210 nM. The same measure for `CCc1ccc(NC(=O)OCCNC(C)=O)cc1` [N-{2-[N-(4-ethylphenyl)carbamoyloxy]ethyl}acetamide]: 17400 nM; for `CCc1ccc(NC(=O)OC[C@H](C)N(C)C(=O)NCc2ccccc2Cl)cc1` [N-{(1S)-2-[N-(4-ethylphenyl)carbamoyloxy]-isopropyl}{[(2-chlorophenyl)methyl]amino}-N-methylcarboxamide]: 148 nM; for `CCc1ccc(NC(=O)OC[C@H](C)NC(=O)NCc2ccccc2Cl)cc1` [N-{(1S)-2-[N-(4-ethylphenyl)carbamoyloxy]-isopropyl}{[(2-chlorophenyl)methyl]amino}carboxamide]: 1630 nM. On to `CCc1ccc(NC(=O)OCC[C@H](C)N(C)C(=O)NCc2ccccc2Cl)cc1` [N-{(1S)-3-[N-(4-ethylphenyl)carbamoyloxy]-1-methylpropyl}{[(2-chlorophenyl)methyl]amino}-N-methylcarboxamide], for which the IC50 was 198 nM.

Regarding `NCC(=O)N1CCC(COC(=O)Nc2ccc(C(F)(F)F)cc2Cl)(C(=O)NCc2ccccc2Cl)CC1` [[1-(2-aminoacetyl)-4-({N-[2-chloro-4-(trifluoromethyl)phenyl]carbamoyloxy}methyl)(4-piperidyl)]-N-[(2-chlorophenyl)methyl]carboxamide], the IC50 was determined as 440 nM. The same measure for `NCC(=O)N1CCC(COC(=O)Nc2ccc(C(F)(F)F)cc2)(C(=O)NCc2ccccc2Cl)CC1` [[1-(2-aminoacetyl)-4-({N-[4-(trifluoromethyl)phenyl]carbamoyloxy}methyl)(4-piperidyl)]-N-[(2-chlorophenyl)methyl]carboxamide]: 285 nM; for `N#Cc1ccccc1CNC(=O)C1(COC(=O)Nc2ccc(C(F)(F)F)cc2)CCN(C(=O)CN)CC1` [[1-(2-aminoacetyl)-4-({N-[4-(trifluoromethyl)phenyl]carbamoyloxy}methyl)(4-piperidyl)]-N-[(2-cyanophenyl)methyl]carboxamide]: 3240 nM; for `Cc1ccc(NC(=O)OCC2(C(=O)NCc3ccccc3Cl)CCN(C(=O)CN)CC2)cc1C(F)(F)F` [[1-(2-aminoacetyl)-4-({N-[4-methyl-3-(trifluoromethyl)phenyl]carbamoyloxy}methyl)(4-piperidyl)]-N-[(2-chlorophenyl)methyl]carboxamide]: 1970 nM. For the molecule `N[C@@H](CO)C(=O)N1CCC(COC(=O)Nc2ccc(C(F)(F)F)cc2)(C(=O)NCc2ccccc2Cl)CC1` [[1-((2S)-2-amino-3-hydroxypropanoyl)-4-({N-[4-(trifluoromethyl)phenyl]carbamoyloxy}methyl)(4-piperidyl)]-N-[(2-chlorophenyl)methyl]carboxamide], the IC50 came to 138 nM.

Take `CCc1ccc(NC(=O)OCCN(CCCCN)C(=O)NCc2ccccc2Cl)cc1` [[2-(N-(4-aminobutyl){[(2-chlorophenyl)methyl]amino}carbonylamino)ethoxy]-N-(4-ethylphenyl)carboxamide]: the IC50 worked out at 346 nM.

Regarding `CCc1ccc(NC(=O)OCCN(CCO)C(=O)NCc2ccccc2Cl)cc1` [[2-({[(2-chlorophenyl)methyl]amino}-N-(2-hydroxyethyl)carbonylamino)ethoxy]-N-(4-ethylphenyl)carboxamide], the half-maximal inhibitory concentration (IC50) was found to be 210 nM.
